Experiments:
[1] = tested on: cocultures of cortical neurons and glia; test: Fe2+-induced free radical neuronal death (LDH); type: cell-based, mouse; details: 50 μM Fe2+; 30-300 μM sulfasalazine concurrent
Method: FIG. 6 is a graph plotting a dose-response effect of sulfasalazine against neuronal death following 24 hr-exposure to 50 μM Fe^2+. […] Neuronal death was assessed 24 hr later by measurement of LDH released into the bathing medium, means ± S.E.M. (n=4 12 culture wells per condition). Asterisk indicates significant difference from relevant control (Fe^2+ alone) at ρ<0.05, using ANOVA and Student-Neuman-Keuls' test.
(§1) Primary cortical cell cultrues from embryonic mice were prepared and used to examine neuroprotective action of compounds. Mouse cortical cell culture system has been extensively used to study mechanisms and pharmacological intervention of neuronal death in neurological diseases. In brief, mouse cerebral coritces were removed from brains of the 15 day—old—fetal mice, in accordance with a protocol approved by our institutional animal care committee. The neocortices were gently triturated and plated on 24 well plates (5 hemispheres/plate) precoated with 100 μg/ml poly-D-lysine and 4 μg/ml laminine. […]
(§2) Overall cell injury was assessed microscopically under phase-contrast optics or by measuring amount of lactate dehydrogenase (LDH) released into the bathing medium 24 hr after neurotoxic insults as previously described (Koh and Choi, J Neurosci Methods 20:83-90, 1987). […]

[2] = tested on: cortical neurons; test: NMDA-induced accumulation of intracellular free Ca2+ (fluo-3); type: cell-based, mouse; details: 300 μM NMDA; 300 μM sulfasalazine
Method: FIG. 4 is a graph plotting effects of sulfasalazine against NMDA-induced accumulation of intracellular free Ca^2+. […] [Ca^2+], was analyzed in fluo-3-loaded neutrons immediately after treatment, mean ± S.E.M. (n÷55−94 randomly chosen neurons in 4-6 glass bottom dishes per condition), scaled to [Ca^2+], after the sham control (÷100%). Asterisk indicates significant difference from relevant control (NMDA alone), at ρ<0.05 using ANOVA and Student-Neuman-Keuls' test.
as §1
Levels of intracellular free Ca^2+ ([Ca^2+]i) were analyzed using a Ca^2+ sensitive indicator flou-3 under a fluorescence microphotometry (Minta A. Kao J P. Tsien R Y. 1989, J Bio Chem. 264:8171-8178). […] The fluroescence images were analyzed using a QuantiCell 700 system (Applied Imaging, England).

[3] = man, 3-5 hrs after oral ingestion of a single 4 g dose; cited from earlier work
[4] = tested on: cortical cell cultures; test: Fe2+-induced production of reactive oxygen species (DCDHF fluorescence); type: cell-based, mouse
Method: FIG. 8 is a graph plotting effects of sulfasalazine against Fe^2+-induced production of reactive oxygen species. Cortical cell cultures (DIV 13-14) were exposed to a sham wash (control) or 50 μM Fe^2+, alone or with 100 μM sulfasalazine for the indicated points of time. Levels of ROS in neurons were analyzed by monitoring the fluorescent signal of oxidized DCDHF, mean ± S.E.M. (n=53−80 neurons randomly chosen under a phase-contrast optic). Asterisk indicates significant difference from the relevant control (Fe^2+ alone in each time point) at ρ<0.05 using ANOVA and Student-Neuman-Keuls' test.
Primary cortical cell cultrues from embryonic mice were prepared and used to examine neuroprotective action of compounds. […]
To analyze reactive oxygen species in cortical cells, cortical cultures were loaded with 10 μM 6-carboxy-2′,7′-dichlorodihydrofluorescein diacetate (DCDHF-DA) plus 2% Pluronic F-127 in HCSS solution containing (120 mM NaCl, 5 mM KCl, 1.6 mM MgCl2, 2.3 mM CaCl2, 15 mM Glucose, 20 mM HEPES, 10 mM NaOH) for 20 minutes at 37° C., washed three times with HCSS solution, and the fluorescence signal of DCF (Ex 1=488 nm, Em 1=510 nm), the oxidation product of DCDHF-DA, was analyzed on the stage of a Nikon Diaphot inverted microscope equipped with a 100W Xenon lamp and a Nikon 20X, 0.4 N.A. objective.

[5] = tested on: cortical cell cultures; test: Neuronal death after oxygen and glucose deprivation (LDH); type: cell-based, mouse; details: 300 μM sulfasalazine
Method: FIG. 11 is a graph plotting neuroprotective effects of sulfasalazine against deprivation of oxygen and glucose. Cortical cell cultures (DIV 14) were deprived of oxygen and glucose (OGD) for 45, 60 or 90 min, alone (black bars) or with inclusion of 300 μM sulfasalazine (gray bars). Neuronal death was assessed 24 hr later by measurement of LDH released into the bathing medium, mean ± SEM (n=4 culture wells per condition). Asterisk indicates significant difference from relevant control (OGD alone) at ρ<0.05, using ANOVA and Student-Neuman-Keuls' test.
Primary cortical cell cultrues from embryonic mice were prepared and used to examine neuroprotective action of compounds. Mouse cortical cell culture system has been extensively used to study mechanisms and pharmacological intervention of neuronal death in neurological diseases. […]
Oxygen or glucose deprivation: cortical cell cultures (DIV 15-17) were transferred to an anacrobic chamber containing 5% CO2, 10% H2, and 85% N2 as described before (Gwag B J, Lobner D, Koh J Y, Wie M B, and Choi D W, 1995, Neuroscience, 68:615-619). […] Neuronal injury was quantified 24 hr later.
as §2

[6] = tested on: cortical cell cultures; test: Zn2+ neurotoxicity (LDH); type: cell-based, mouse; details: 300 μM Zn2+ for 30 min; 10-100 μM sulfasalazine concurrent
Method: FIG. 9 is a graph plotting a dose-response effect of sulfasalazine against neuronal death 24 hr following exposure to 300 μM Zn^2+ for 30 min. Cortical cell cultures were exposed to 30-500 μM Zn^2+ for 30 min, alone (filled circles) or with inclusion of 100 μM sulfasalazine (open circles). Neuronal death was assessed 24 hr later by measurement of LDH released into the bathing medium, mean ± SEM (n=8 culture wells per condition). Asterisk indicates significant difference from relevant control (Zn^2+ alone) at ρ<0.05, using ANOVA and Student-Neuman-Keuls' test.
as §1, with “committee.” for “committee. The neocortices were gently triturated and plated on 24 well plates (5 hemispheres/plate) precoated with 100 μg/ml poly-D-lysine and 4 μg/ml laminine.”
as §2

[7] = tested on: cocultures of cortical neurons and glia; test: BSO-induced free radical neuronal death (LDH); type: cell-based, mouse; details: 10 mM BSO; 30-300 μM sulfasalazine concurrent
Method: FIG. 7 is a graph plotting a dose-response effect of sulfasalazine against neuronal death following 24 hr-exposure to 10 mM BSO. Cortical cell cultures (DIV 12-14) were exposed to 10 mM L-buthionine-(S,R)-sulfoximine (BSO), alone or with 30-300 μM sulfasalazine. Neuronal death was assessed 24 hr later by measurement of LDH released into the bathing medium, mean ± SEM (n=8 culture wells per condition). Asterisk indicates significant difference from relevant control (BSO alone) at ρ<0.05, using ANOVA and Student-Neuman-Keuls' test.
as §1, §2

[8] = tested on: cortical cell cultures; test: NMDA-induced 45Ca2+ uptake; type: cell-based, mouse; details: for 45Ca2+ influx after NMDA: 300 μM NMDA, 10 min
Method: FIG. 5 is a graph plotting effects of sulfasalazine against NMDA-induced ^45Ca^2+ uptake. Cortical cell cultrues (DIV 12-14) were exposed to a sham wash (control) or 300 μM NMDA, alone or in the presence of 30-1000 μM sulfasalazine. Ca^2+ influx was analyzed 10 min later by measuring ^45Ca^2+ influx, mean ± S.E.M. (n=12 cultures per condition). Asterisk indicates significant difference from relevant control (NMDA alone), at ρ<0.05 using ANOVA and Student-Neuman-Keuls' test.
Primary cortical cell cultrues from embryonic mice were prepared and used to examine neuroprotective action of compounds. Mouse cortical cell culture system has been extensively used to study mechanisms and pharmacological intervention of neuronal death in neurological diseases. In brief, mouse cerebral coritces were removed from brains of the 15 day—old—fetal mice, in accordance with a protocol approved by our institutional animal care committee. The neocortices were gently triturated and plated on 24 well plates (5 hemispheres/plate) precoated with 100 μg/ml poly-D-lysine and 4 μg/ml laminine. Plating media consist of Eagles minimal essential media (MEM, Earles salts, supplied glutamine-free) supplemented with 5% horse serum, 5% fetal bovine serum, 2 mM glutamine, and 21 mM glucose. Cultures were maintained at 37° C. in a humidified 5% CO2 atmosphere. After 7 days in vitro (DIV 7), cultures were shifted into a growth medium identical to the plating medium but lacking fetal serum. At DIV 7-9, […] cytosine arabinofuranoside was included to halt overgrowth of glia. Mixed cultures of neurons and glia were then fed twice a week.
To analyze Ca^2+ uptake, cortical cell cultures (DIV 13-14) were added with 300 μM NMDA and 1.5 μCi ^45Ca^2+ for 10 min, washed thoroughly with HCSS, and lysed in 0.2% SDS. Levels of ^45Ca^2+ in the lysates were read in a Beckman Scintillation counter.

[9] = tested on: cortical cell cultures; test: Zn2+ entry into cortical cells (TSQ fluorescence); type: cell-based, mouse
Method: FIG. 10 is a graph plotting effects of sulfasalazine reducing Zn^2 entry into cortical cells. Sister cultures were exposed to 300 μM Zn^2+ for 30 min, alone or with inclusion of 30-300 μM sulfasalazine. Zn^2+ entry was assessed 30 min later by measuring fluorescence intensity of TSQ, a Zn^2+ chelating agent. (n=8 culture wells per condition). Asterisk indicates significant difference from relevant control (Zn^2 alone) at ρ<0.05, using ANOVA and Student-Neuman-Keuls' test.
as §1, with “committee.” for “committee. The neocortices were gently triturated and plated on 24 well plates (5 hemispheres/plate) precoated with 100 μg/ml poly-D-lysine and 4 μg/ml laminine.”
Entry and accumulation of Zn^2+ into neurons were analyzed using TSQ (N-(6-methoxy-8-quinolyl)-p-toluene sulfonamide), a membrane-permeable Zn^2+-chelating dye (Weiss J H, Hartley D M, Koh J Y, Choi D W, 1993, Neuron, 10:43-49). Cultures were incubated in HCSS containing 0.01% TSQ for 5 min, observed under fluorescence microscopy with a UV filter (excitation 365 nm, dichroic 400 nm, barrier 450 nm), and the intensity of TSQ was analyzed using a fluorescence plate reader.

[10] = tested on: cocultures of mouse cortical neurons and glia; test: NMDA-induced neuronal death (LDH efflux) in cortical cell cultures; type: cell-based; details: for NMDA neurotoxicity (neuronal death 24 hr later): 300 μM NMDA for 10 min
Method: FIG. 2 is a graph plotting a dose-response effect of sulfasalazine against neuronal death 24 hr following a brief exposure to 300 μM NMDA. Cocultures of mouse cortical neurons and glia (DIV 12-14) were exposed to 300 μM NMDA for 10 min, alone or with inclusion of 10-1000 μM sulfasalazine. Neuronal death was analyzed by measuring LDH efflux into the bathing medium 24 hr later, mean ± S.E.M. (n−8−16 cultrues per condition), scaled to the mean LDH value corresponding to the near-complete neuronal death induced by 24 hr exposure to 500 μM NMDA (=100%). Asterisk indicates significant difference from relevant control (NMDA alone), at ρ<0.05 using ANOVA and Student-Neuman-Keuls' test.
FIG. 3 is a graph plotting neuroprotective effects of sulfasalazine against dose-dependent neurotoxicity by NMDA. Cortical cell cultures were exposed to 30-1000 μM NMDA for 10 min, alone or in the presence of 300 or 1000 μM sulfasalazine. Neuronal death was analyzed by measuring LDH efflux into the bathing medium 24 hr later, mean ± S.E.M. (n=8−16 cultures per condition). Asterisk indicates significant difference from relevant control (NMDA alone), at ρ<0.05 using ANOVA and Student-Neuman-Keuls' test.
as §1, §2

O=C(O)c1cc(/N=N/c2ccc(S(=O)(=O)Nc3ccccn3)cc2)ccc1O [sulfasalazine]
neuronal death 24 hr following continuous exposure to Fe2+ [1]: dose-dependently reduced | NMDA-induced accumulation of [Ca2+]i [2]: markedly reduced | serum concentrations [3]: approximately 500 μM | production of ROS following exposure to Fe2+ ([4]; 50 μM Fe2+, 100 μM sulfasalazine): reduced production of ROS | doses scavenging reactive oxygen species ([4]; summary statement): 3 to 100 µM | neuroprotective effects after prolonged deprivation of oxygen and glucose ([5]; OGD extended to 90 min): decreased | neuronal death following deprivation of oxygen and glucose ([5]; OGD for 45-60 min): markedly reduced | Zn2+ neurotoxicity [6]: reduced Zn^2+ neurotoxicity in a dose-dependent manner | neuronal death 24 hr following continuous exposure to BSO [7]: dose-dependently reduced | 45Ca2+ influx after NMDA ([8]; 300 μM sulfasalazine): partially reduced | 45Ca2+ influx after NMDA ([8]; 1000 μM sulfasalazine): completely blocked | doses preventing influx and accumulation of Ca2+ ([8]; summary statement): 30-1,000 μM | Zn2+ entry ([9]; 300 μM Zn2+ for 30 min, 300 μM sulfasalazine): slightly but significantly reduced | doses preventing influx and accumulation of Zn2+ ([9]; summary statement): 30-1,000 μM | NMDA neurotoxicity (neuronal death 24 hr later) ([10]; 1 mM sulfasalazine): completely blocked | NMDA neurotoxicity (neuronal death 24 hr later) ([10]; 100-300 μM sulfasalazine concurrent): partially reduced | neuroprotective effects with increasing doses of NMDA ([10]; NMDA up to 1 mM for 10 min, 300 or 1000 μM sulfasalazine): did not interfere with the neuroprotective effects
